Key:
Experiment in all cases: hydroxylation, product quantified by HPLC-DAD ([…] nm)
Type in all cases: biochemical, Dahlia pinnata
Conditions in all cases: 1.55 mM NADPH, CrCPR microsomes, pH 7.5, 30 °C
[1] = system: T1, DvCH3H (chalcone 3-hydroxylase)
T1 construct: gene CH3H; assayed with yeast microsomes containing recombinant Catharanthus roseus CPR (GenBank X69791.1); with NADPH--cytochrome P450 reductase (Catharanthus roseus)

[2] = system: T1, DvCH3H (chalcone 3-hydroxylase); remark: listed apart in the source
[3] = system: T1, DvCH3H (chalcone 3-hydroxylase); remark: listed apart in the source

Question: With O=C1C[C@@H](c2ccc(O)cc2)Oc2cc(O)cc(O)c21 [(2S)-Naringenin] as the compound, how does the Km [1] read?
Answer: 760 ± 94 nM

Question: O=c1c(O)c(-c2ccc(O)cc2)oc2cc(O)cc(O)c12 [Kaempferol] was tested. Which Km [2] did it give?
Answer: 622 ± 69 nM

Question: With O=c1cc(-c2ccc(O)cc2)oc2cc(O)cc(O)c12 [Apigenin] as the compound, how does the Km [3] read?
Answer: 329 ± 7 nM

Question: Which Km ([1]; racemic mixture) does the source give for O=C1CC(c2ccc(O)cc2)Oc2cc(O)cc(O)c21 (racemic) [Racemic Naringenin] here?
Answer: 402 ± 46 nM

Question: Which Km [1] does the source give for O=C1C[C@H](c2ccc(O)cc2)Oc2cc(O)cc(O)c21 [(2R)-Naringenin] here?
Answer: 408 ± 15 nM
